Drawing on US4864023A, “Pyrido(3,2,1-IJ)-1,3,4-benzoxadiazine derivatives” (priority 1988, dated 1989), this text covers MIC for four compounds.

Holding throughout (experiment): in vitro antibacterial activity, standard agar dilution method
Common to all, as to type: cell-based
A general note: In agar dilution the substance is mixed into plates at graded concentrations.

Test [1] has as its system Alcaligenes faecalis IFO 13111. The following applies: IFO13111, aerobic, read-out: minimum inhibitory concentration (MIC).
The subject of test [2] is Enterococcus faecalis NR 2943. The following applies: NR2943, aerobic, read-out: minimum inhibitory concentration (MIC).
Test [3] concerns Staphylococcus epidermidis IFO 12993. As to conditions: IFO12993, aerobic, read-out: minimum inhibitory concentration (MIC).
Test [4] concerns Enterobacter cloacae NR 2946. The following applies: NR2946, aerobic, read-out: minimum inhibitory concentration (MIC).
Test [5] has as its system Bacillus subtilis PCI 219. As to conditions: PCI219, aerobic, read-out: minimum inhibitory concentration (MIC).
The next test concerns Escherichia coli NR 2630. As to conditions: NR2630; Escherichia coli NR 2630; aerobic; agar dilution; read-out: minimum inhibitory concentration (MIC).
Test [6] relates to Staphylococcus aureus NR 2855.
The subject of test [7] is Enterobacter aerogenes NR 2945. The following applies: Klebsiella aerogenes, NR2945, aerobic, read-out: minimum inhibitory concentration (MIC).
Test [8] relates to Staphylococcus epidermidis NR 2942. As to conditions: NR2942, aerobic, read-out: minimum inhibitory concentration (MIC).
Test [9] relates to Pseudomonas aeruginosa A3. As to conditions: aerobic, read-out: minimum inhibitory concentration (MIC).
Test [10] has as its system Proteus vulgaris OX19 ATCC 6898. As to conditions: ATCC6898, aerobic, read-out: minimum inhibitory concentration (MIC).
Test [11] deals with Salmonella typhimurium IFO 12529. The following applies: Salmonella enterica, aerobic, read-out: minimum inhibitory concentration (MIC).
Test [12] relates to Pseudomonas aeruginosa NR 2950. As to conditions: NR2950, aerobic, read-out: minimum inhibitory concentration (MIC).
In test [13] the test system is Citrobacter freundii IFO 12681. The following applies: IFO12681, aerobic, read-out: minimum inhibitory concentration (MIC).
The test system of test [14] is Staphylococcus aureus Smith. As to conditions: Staphylococcus aureus Smith; aerobic; agar dilution; read-out: minimum inhibitory concentration (MIC).
For test [15], the system named is Proteus rettgeri ATCC 14505. As to conditions: Providencia rettgeri, ATCC14505, aerobic, read-out: minimum inhibitory concentration (MIC).
Test [16] relates to Escherichia coli NIHJ JC-2. As to conditions: NIHJJC2, aerobic, read-out: minimum inhibitory concentration (MIC).
Test [17] concerns Bordetella bronchiseptica ATCC 4617. As to conditions: ATCC4617, aerobic, read-out: minimum inhibitory concentration (MIC).
Test [18] has as its system Staphylococcus aureus FDA 209P JC-1. As to conditions: FDA209P, read-out: minimum inhibitory concentration (MIC).
Test [19] deals with Klebsiella pneumoniae FDA PCI 602. As to conditions: FDAPCI602, aerobic, read-out: minimum inhibitory concentration (MIC).
Test [20] has as its system Serratia marcescens IFO 12648. The following applies: IFO12648, aerobic, read-out: minimum inhibitory concentration (MIC).
Test [21] relates to Pseudomonas stutzeri IFO 12695. The following applies: Stutzerimonas stutzeri, IFO12695, aerobic, read-out: minimum inhibitory concentration (MIC).
Where [22] appears, read: NR2855, Staphylococcus aureus NR 2855, aerobic, agar dilution, read-out: minimum inhibitory concentration (MIC).
Setting [23] is: Staphylococcus aureus FDA 209P JC-1, aerobic, agar dilution.

Values after ≈ are worked out from the molar mass of the structure shown. Like-named read-outs stand apart in the source and are kept apart here.

Consider `CN1COc2c(N3CCC(CN)C3)c(F)cc3c(=O)c(C(=O)O)cn1c23` (stereo not shown) [Example 54, 10-[3-(aminomethyl)-1-pyrrolidinyl]-9-fluoro-3-methyl-7-oxo-2,3-dihydro-7H-pyrido[3,2,1-ij]-1,3,4-benzoxadiazine-6-carboxylic acid], for which the MIC in test [1] stood at 6.25 µg/mL (≈ 17.2 µM); in test [2] it was 1.56 µg/mL (≈ 4.31 µM); in [3], 0.1 µg/mL (≈ 0.276 µM); in test [4], 0.1 µg/mL (≈ 0.276 µM); in [5] it was 0.025 µg/mL (≈ 0.069 µM); in the test with Escherichia coli NR 2630, 0.025 µg/mL (≈ 0.069 µM). The MIC was 0.2 µg/mL (≈ 0.552 µM) in test [6] (setting [22]); 0.025 µg/mL (≈ 0.069 µM) in test [7]; 0.1 µg/mL (≈ 0.276 µM) in test [8]; 0.2 µg/mL (≈ 0.552 µM) in [9]; 0.013 µg/mL (≈ 0.0359 µM) in test [10]; 0.025 µg/mL (≈ 0.069 µM) in test [11]. In addition, the MIC in [12] amounted to 1.56 µg/mL (≈ 4.31 µM); in test [13], 0.1 µg/mL (≈ 0.276 µM); in test [14], 0.025 µg/mL (≈ 0.069 µM); in test [15], 0.78 µg/mL (≈ 2.15 µM); in test [16], 0.1 µg/mL (≈ 0.276 µM); in test [17], 3.13 µg/mL (≈ 8.64 µM). Further, the MIC is 0.013 µg/mL (≈ 0.0359 µM) in test [18] (setting [23]), 0.78 µg/mL (≈ 2.15 µM) in test [19], 0.39 µg/mL (≈ 1.08 µM) in test [20] and 0.013 µg/mL (≈ 0.0359 µM) in test [21].
Consider `CCNC1CCN(c2c(F)cc3c(=O)c(C(=O)O)cn4c3c2OCN4C)C1` (stereo not shown) [Example 32], for which the MIC in test [1] turned out to be 1.56 µg/mL (≈ 4.14 µM); in test [2], 6.25 µg/mL (≈ 16.6 µM); in test [3], 0.39 µg/mL (≈ 1.04 µM); in [4], 0.1 µg/mL (≈ 0.266 µM); in test [5] it was 0.05 µg/mL (≈ 0.133 µM); with Escherichia coli NR 2630 it was 0.025 µg/mL (≈ 0.0664 µM). Also, the MIC in test [6] (setting [22]) was 0.39 µg/mL (≈ 1.04 µM); in [7], 0.025 µg/mL (≈ 0.0664 µM); in test [8], 0.39 µg/mL (≈ 1.04 µM); in [9], 0.39 µg/mL (≈ 1.04 µM); in test [10], 0.025 µg/mL (≈ 0.0664 µM); in [11], 0.025 µg/mL (≈ 0.0664 µM). Moreover, the MIC in [12] is 3.13 µg/mL (≈ 8.32 µM); in [13], 0.1 µg/mL (≈ 0.266 µM); in test [14] it was 0.1 µg/mL (≈ 0.266 µM); in test [15], 1.56 µg/mL (≈ 4.14 µM); in test [16] it was 0.1 µg/mL (≈ 0.266 µM); in test [17], 1.56 µg/mL (≈ 4.14 µM). For the same compound, the MIC in test [18] (setting [23]) amounted to 0.2 µg/mL (≈ 0.531 µM); in test [19], 0.39 µg/mL (≈ 1.04 µM); in test [20], 0.39 µg/mL (≈ 1.04 µM); in [21] it was 0.1 µg/mL (≈ 0.266 µM).
For the compound `CN1COc2c(N3CCN(CCF)CC3)c(F)cc3c(=O)c(C(=O)O)cn1c23` [Example 44], the MIC in [1] turned out to be 1.56 µg/mL (≈ 3.96 µM); in test [2], 12.5 µg/mL (≈ 31.7 µM); in [3], 0.78 µg/mL (≈ 1.98 µM); in test [4] it was 0.2 µg/mL (≈ 0.507 µM); in test [5], 0.05 µg/mL (≈ 0.127 µM); in the test with Escherichia coli NR 2630 it was 0.05 µg/mL (≈ 0.127 µM). Also, the MIC in test [6] (setting [22]) is 0.39 µg/mL (≈ 0.989 µM); in test [7], 0.1 µg/mL (≈ 0.254 µM); in [8], 0.39 µg/mL (≈ 0.989 µM); in test [9] it was 0.78 µg/mL (≈ 1.98 µM); in test [10], 0.1 µg/mL (≈ 0.254 µM); in test [11] it was 0.2 µg/mL (≈ 0.507 µM). The MIC turned out to be 6.25 µg/mL (≈ 15.8 µM) in test [12]; 0.2 µg/mL (≈ 0.507 µM) in test [13]; 0.39 µg/mL (≈ 0.989 µM) in [14]; 1.56 µg/mL (≈ 3.96 µM) in [15]; 0.2 µg/mL (≈ 0.507 µM) in [16]; 0.39 µg/mL (≈ 0.989 µM) in test [17]. Besides, the MIC in [18] (setting [23]) turned out to be 0.78 µg/mL (≈ 1.98 µM); in [19] it was 0.39 µg/mL (≈ 0.989 µM); in test [20], 0.39 µg/mL (≈ 0.989 µM); in [21], 0.2 µg/mL (≈ 0.507 µM).
In the case of `CC(=O)NCC1CCN(c2c(F)cc3c(=O)c(C(=O)O)cn4c3c2OCN4C)C1` (stereo not shown) [Example 19, 10-[3-(acetylaminomethyl)-1-pyrrolidinyl]-9-fluoro-3-methyl-7-oxo-2,3-dihydro-7H-pyrido[3,2,1-ij]-1,3,4-benzoxadiazine-6-carboxylic acid], the MIC in test [1] was found to be 6.25 µg/mL (≈ 15.5 µM); in test [2], 6.25 µg/mL (≈ 15.5 µM); in test [3], 0.39 µg/mL (≈ 0.964 µM); in [4] it was 1.56 µg/mL (≈ 3.86 µM); in test [5], 0.05 µg/mL (≈ 0.124 µM); in the test on Escherichia coli NR 2630 it was 0.39 µg/mL (≈ 0.964 µM). Besides, the MIC in test [6] (Staphylococcus aureus, NR2855, read-out: minimum inhibitory concentration (MIC)) came to 0.39 µg/mL (≈ 0.964 µM); in test [7], 1.56 µg/mL (≈ 3.86 µM); in test [8] it was 0.39 µg/mL (≈ 0.964 µM); in test [9], 6.25 µg/mL (≈ 15.5 µM); in test [10], 0.39 µg/mL (≈ 0.964 µM); in test [11], 1.56 µg/mL (≈ 3.86 µM). The MIC in test [12] turned out to be 25 µg/mL (≈ 61.8 µM); in [13], 1.56 µg/mL (≈ 3.86 µM); in test [14], 0.2 µg/mL (≈ 0.495 µM); in [15] it was 3.13 µg/mL (≈ 7.74 µM); in [16], 1.56 µg/mL (≈ 3.86 µM); in test [17], 6.25 µg/mL (≈ 15.5 µM). For the same compound, the MIC in test [18] (Staphylococcus aureus) came to 0.39 µg/mL (≈ 0.964 µM); in test [19], 6.25 µg/mL (≈ 15.5 µM); in test [20] it was 3.13 µg/mL (≈ 7.74 µM); in [21] it was 0.39 µg/mL (≈ 0.964 µM).
